Data as given in patent US20230183239A1, “ECTONUCLEOTIDE PYROPHOSPHATASE-PHOSPHODIESTERASE 1 (ENPP-1) INHIBITORS AND USES THEREOF” (AbbVie Inc., priority 2017, published 2023).

Tests used:
Format in all cases: biochemical
ENPP1 [1] = biological target: T1, ENPP1 (Homo sapiens, UniProt P22413); experiment: ENPP1 enzyme assay with AMP-pNP substrate (hydrolysis of ATP analog); conditions: AMP-pNP substrate (ATP analog); Ki from IC50 by Cheng-Prusoff; read-out: ENPP1 Inhibition _AMP-pNP: Ki
T1 sequence (P22413 1-925): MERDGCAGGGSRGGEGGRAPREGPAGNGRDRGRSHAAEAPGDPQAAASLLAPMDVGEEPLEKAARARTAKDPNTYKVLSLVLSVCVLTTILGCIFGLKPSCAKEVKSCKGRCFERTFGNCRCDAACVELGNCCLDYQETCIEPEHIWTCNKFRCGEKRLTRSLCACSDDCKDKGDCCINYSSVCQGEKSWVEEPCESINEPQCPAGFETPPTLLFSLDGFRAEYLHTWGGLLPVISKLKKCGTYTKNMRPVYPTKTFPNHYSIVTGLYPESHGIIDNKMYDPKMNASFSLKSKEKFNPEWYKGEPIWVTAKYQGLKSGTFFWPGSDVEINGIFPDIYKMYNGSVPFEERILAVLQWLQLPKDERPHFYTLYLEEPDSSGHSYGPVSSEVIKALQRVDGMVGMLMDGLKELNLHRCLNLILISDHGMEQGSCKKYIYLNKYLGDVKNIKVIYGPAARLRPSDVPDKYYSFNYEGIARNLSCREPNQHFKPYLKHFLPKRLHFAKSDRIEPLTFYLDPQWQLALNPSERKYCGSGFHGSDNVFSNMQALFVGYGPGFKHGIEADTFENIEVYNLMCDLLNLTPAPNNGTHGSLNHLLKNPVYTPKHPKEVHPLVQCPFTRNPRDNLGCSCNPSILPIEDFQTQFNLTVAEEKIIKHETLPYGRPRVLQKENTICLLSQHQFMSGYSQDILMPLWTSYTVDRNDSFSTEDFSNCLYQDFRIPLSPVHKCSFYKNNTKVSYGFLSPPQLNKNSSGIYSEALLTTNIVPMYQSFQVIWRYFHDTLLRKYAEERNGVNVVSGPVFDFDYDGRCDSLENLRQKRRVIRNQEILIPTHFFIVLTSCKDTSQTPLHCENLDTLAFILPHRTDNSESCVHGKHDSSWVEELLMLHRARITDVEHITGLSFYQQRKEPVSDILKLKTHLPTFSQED
Procedure, shortened: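 Human recombinant ENPP1 (60 ng/well) with 300 µM AMP-pNP in 50 mM Tris-HCl pH 8.5, 250 mM NaCl, 0.5 mM CaCl2, 1 µM ZnCl2, 0.1% DMSO, 20 min at 37 °C.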

ENPP1 [2] = biological target: T1, ENPP1; experiment: Indirect quantitation of 2',3'-cGAMP hydrolysis (AMP-Glo Assay kit); conditions: cGAMP substrate; Ki from IC50 by Cheng-Prusoff; read-out: ENPP1 Inhibition -cGAMP: Ki
ENPP1 [3] = biological target: T1, ENPP1; experiment: Substrate selectivity ratio, inhibition of cGAMP hydrolysis versus ATP hydrolysis; conditions: ratio Ki AMP-pNP / Ki cGAMP
Experimental: The selectivity ratios for inhibition of cGAMP hydrolysis versus ATP hydrolysis were then calculated as follows: […]

Row | Structure (SMILES) | Ki (ENPP1 [1]) [nM] | Ki (ENPP1 [2]) [nM] | Substrate Selectivity: Ki_AMP-pNP/Ki_cGAMP (ENPP1 [3])
1 | COc1ccc2c(-c3ccc(CNS(N)(=O)=O)cc3Cl)ccnc2c1 [Example 419, N-(3-chloro-4-(7-methoxyquinolin-4-yl)benzyl)sulfamide] | > 1000 | < 100 | >70
2 | COc1ccc2c(Oc3ccc(S(=N)(=O)O)cc3F)ccnc2c1 [Example 382, 3-fluoro-4-((7-methoxyquinolin-4-yl)oxy)benzene sulfonamide] | > 1000 | < 100 | >142
3 | COc1cc2ncnc(N3CCC(CCNS(N)(=O)=O)CC3)c2cc1Cl [Example 169, N-(2-(1-(6-chloro-7-methoxyquinazolin-4-yl)piperidin-4-yl)ethyl)sulfamide] | 100 to 1000 | < 100 | 6.9
4 | COc1cc2ncc(C#N)c(-c3ccc(CNS(N)(=O)=O)cc3)c2cc1F [Example 395, N-(4-(3-cyano-6-fluoro-7-methoxyquinolin-4-yl)benzyl)sulfamide] | 100 to 1000 | < 100 | >31
5 | COc1cc2ncc(C(N)=O)c(N3CCC(CCNS(N)(=O)=O)CC3)c2cc1OC [Example 19, 6,7-dimethoxy-4-(4-(2-(sulfamoylamino)ethyl)piperidin-1-yl)quinoline-3-carboxamide] | > 1000 | < 100 | >95.8
6 | COc1cc2nccc(Oc3cc(F)c(NS(N)(=O)=O)c(F)c3)c2cc1OC [Example 271, N-(4-((6,7-dimethoxyquinolin-4-yl)oxy)-2,6-difluorophenyl)sulfamide] | > 1000 | 100 to 1000 | >16.2
7 | COc1cc2nccc(Oc3ccc(N(O)C=O)cc3)c2cc1OC [Example 292, N-(4-((6,7-dimethoxyquinolin-4-yl)oxy)phenyl)-N-hydroxyformamide] | > 1000 | < 100 | >31.1
8 | COc1ccc2ncnc(N3CCC4(CC3)CCN(S(N)(=O)=O)C4)c2c1 [Example 70, 8-(6-methoxyquinazolin-4-yl)-2,8-diazaspiro [4.5] decane-2-sulfonamide] | < 100 | < 100 | 15.5
9 | COc1cc2ncc(C3CC3)c(-c3ccc4c(c3)CN(S(N)(=O)=O)CC4)c2cc1OC [Example 283, 7-(3-cyclopropyl-6,7-dimethoxyquinolin-4-yl)-3,4-dihydroisoquinoline-2(1H)-sulfonamide] | < 100 | < 100 | 5.4
10 | COc1cc2ncnc(NCc3ccc(C(=O)NO)cc3)c2cc1OC [Example 196, 4-(((6,7-dimethoxyquinazolin-4-yl)amino)methyl)-N-hydroxybenzamide] | > 1000 | < 100 | > 13.4
11 | COc1ccc2c(Oc3ccc(NS(N)(=O)=O)cc3C(F)(F)F)ccnc2c1 [Example 317, N-(4-((7-methoxyquinolin-4-yl)oxy)-3-(trifluoromethyl)phenyl)sulfamide] | > 1000 | 100 to 1000 | >49.9
12 | COc1ccc2c(Nc3ccc(NS(N)(=O)=O)cc3)ccnc2c1F [Example 269, N-(4-((8-fluoro-7-methoxyquinolin-4-yl)amino)phenyl)sulfamide] | 100 to 1000 | < 100 | >7.1
13 | COc1ccc2c(-c3ccc(C(C)NS(N)(=O)=O)cc3)ccnc2c1 (stereo not drawn) [Example 416, N-(1-(4-(7-methoxyquinolin-4-yl)phenyl)ethyl)sulfamide] | 100 to 1000 | < 100 | 50
14 | COc1cc2nccc(Nc3ccc(NS(N)(=O)=O)cc3)c2cc1OC [Example 134, N-(4-((6,7-dimethoxyquinolin-4-yl)amino)phenyl)sulfamide] | > 1000 | < 100 | >69.1
15 | COc1ccc2c(Oc3cnc(NS(N)(=O)=O)nc3)ccnc2c1 [Example 224, N-(5-((7-methoxyquinolin-4-yl)oxy)pyrimidin-2-yl)sulfamide] | 100 to 1000 | 100 to 1000 | > 2.40
16 | COc1cc2c(-c3ccc(CNS(N)(=O)=O)cc3)c(C#N)cnc2cn1 [Example 235, N-(4-(3-cyano-6-methoxy-1,7-naphthyridin-4-yl)benzyl)sulfamide] | > 1000 | 100 to 1000 | >97.7
17 | COc1ccc2c(-c3ccc(CNS(N)(=O)=O)c(OC)c3)ccnc2c1 [Example 373, N-(2-methoxy-4-(7-methoxyquinolin-4-yl)benzyl)sulfamide] | > 1000 | 100 to 1000 | >136
18 | COc1ccc2c(N3CCc4c3ccc(NS(N)(=O)=O)c4F)ccnc2c1 [Example 379, N-(4-fluoro-1-(7-methoxyquinolin-4-yl)indolin-5-yl)sulfamide] | 100 to 1000 | < 100 | >41
19 | COc1ccc2c(Oc3ncc(NS(N)(=O)=O)cc3C)ccnc2c1 [Example 351, N-(6-((7-methoxyquinolin-4-yl)oxy)-5-methylpyridin-3-yl)sulfamide] | > 1000 | < 100 | 55
20 | COc1ccc2ncnc(NC(C)c3ccc(NS(N)(=O)=O)cc3)c2c1 (stereo not drawn) [Example 299, N-(4-(1-((6-methoxyquinazolin-4-yl)amino)ethyl)phenyl)sulfamide] | > 1000 | < 100 | >45.9
21 | COc1cc2nccc(OC3CCC(NS(N)(=O)=O)C3)c2cc1OC (stereo not drawn) [Example 213, N-(3-((6,7-dimethoxyquinolin-4-yl)oxy)cyclopentyl)sulfamide] | > 1000 | < 100 | 33.0
22 | COc1cc2ccc(=O)n(Cc3ccc(NS(N)(=O)=O)cc3)c2cc1OC [Example 126, N-(4-((6,7-dimethoxy-2-oxoquinolin-1(2H)-yl)methyl)phenyl) sulfamide] | > 1000 | 100 to 1000 | >134
23 | COc1ccc2c(-c3ccc(C(C)(C)NS(N)(=O)=O)cc3)ccnc2c1 [Example 357, N-(2-(4-(7-methoxyquinolin-4-yl)phenyl)propan-2-yl)sulfamide] | 100 to 1000 | < 100 | >18
24 | COc1cc2ncnc(N3CCc4cc(NS(N)(=O)=O)ccc4C3)c2cc1OC [Example 137, N-(2-(6,7-dimethoxyquinazolin-4-yl)-1,2,3,4-tetrahydroisoquinolin-6-yl)sulfamide] | 100 to 1000 | < 100 | 22.4
25 | COc1cc2nccc(-c3ccc(CNS(N)(=O)=O)c(F)c3)c2cc1OC [Example 69, N-(4-(6,7-dimethoxyquinolin-4-yl) -2-fluorobenzyl)sulfamide] | < 100 | < 100 | 8.9
26 | COc1ccc2c(-c3ccc(CNS(N)(=O)=O)cn3)ccnc2c1 [Example 387, ((6-(7-methoxy quinolin-4-yl)pyridin-3-yl)methyl)sulfamide] | > 1000 | < 100 | 36
27 | COc1ccc2c(Oc3ccc(NS(N)(=O)=O)cc3)c(C)cnc2c1 [Example 300, N-(4-((7-methoxy-3-methylquinolin-4-yl)oxy)phenyl)sulfamide] | 100 to 1000 | < 100 | 13.7
28 | COc1ccc2c(Oc3ccc(NS(N)(=O)=O)cc3)ccnc2n1 [Example 73, N-(4-((7-methoxy-1,8-naphthyridin-4-yl)oxy)phenyl)sulfamide] | < 100 | < 100 | 24.2
29 | COc1ccc2c(-c3ccc(CNS(N)(=O)=O)cc3)c(C#N)cnc2c1 [Example 244, N-(4-(3-cyano-7-methoxyquinolin-4-yl)benzyl)sulfamide] | 100 to 1000 | < 100 | 53.0
